The values below come from ChEMBL document CHEMBL5046244, “Targeted Covalent Inhibition of Small CTD Phosphatase 1 to Promote the Degradation of the REST Transcription Factor in Human Cells” (J Med Chem, 2022).

Molecules are shown by their SMILES. The source made the active and inactive calls. The calls are words filed in the database; no cut-off is given here.

The species entered for experiment [1] is Homo sapiens. As to the kind of experiment: Covalent inhibition of human SCP1 C181A mutant using pNPP as substrate preincubated for 0.5 to 8 hrs followed by substrate addition by absorbance based analysis. As to conditions: time 0.5-8 hrs.
For experiment [2], the species on record is Homo sapiens. As to the kind of experiment: Covalent binding affinity to human SCP1 C181A mutant assessed as covalent adduct formation incubated for overnight by MALDI-TOF analysis.
A short description of experiment [3]: Downregulation of REST protein expression in HEK293 cells at 10 uM incubated for 3 days with media replenishment for every 24 hrs by immunoblot analysis relative to control. In kind it is functional, Homo sapiens. The following applies: time 3 day. For orientation: Immunoblotting shows a protein as a band on a membrane.
In experiment [4] the test system is HEK293. Put plainly: Downregulation of REST protein expression in HEK293 cells at 10 uM incubated for 48 to 72 hrs by immunoblot analysis. The experiment is classed as functional, cell-based. The following applies: Homo sapiens, time lower […], time upper 72.0 hrs.
Experiment [5] is described as follows: Downregulation of REST protein expression in HEK293 cells transfected with wild type SCP1 at 10 uM incubated for 48 hrs with media replenishment for every 24 hrs by immunoblot analysis relative to control. In kind it is functional, Homo sapiens.
The nature of experiment [6]: Upregulation of USP37 mRNA expression in HEK293 cells assessed as fold increase by qRT-PCR analysis. In kind it is functional, Homo sapiens. In general terms: Quantitative PCR measures a nucleic acid by following its amplification.
The target of experiment [7] is Dual specificity protein phosphatase 3 (Homo sapiens) (UniProt P51452). As to the kind of experiment: Inhibition of VHR (unknown origin) at 25 to 30 uM. As to conditions: dose 25-30 µM.
Dual specificity protein phosphatase 3 (Homo sapiens), sequence (P51452 whole entry, looked up): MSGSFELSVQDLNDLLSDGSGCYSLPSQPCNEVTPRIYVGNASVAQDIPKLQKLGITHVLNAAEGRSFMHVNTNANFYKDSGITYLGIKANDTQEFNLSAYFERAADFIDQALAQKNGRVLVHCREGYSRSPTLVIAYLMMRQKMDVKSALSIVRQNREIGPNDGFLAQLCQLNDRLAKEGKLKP
A short description of experiment [8]: Downregulation of REST protein expression in HEK293 cells at 5 uM incubated for 3 days with media replenishment for every 24 hrs by immunoblot analysis relative to control. The experiment is classed as functional, Homo sapiens. As to conditions: time 3 day.
Experiment [9] in a line: Upregulation of DYRK1a mRNA expression in HEK293 cells assessed as fold increase by qRT-PCR analysis. The experiment is classed as functional, Homo sapiens.
For experiment [10], the target named is T1, Tyrosine-protein phosphatase non-receptor type 22 (Homo sapiens) (UniProt Q9Y2R2).
T1 sequence (whole entry): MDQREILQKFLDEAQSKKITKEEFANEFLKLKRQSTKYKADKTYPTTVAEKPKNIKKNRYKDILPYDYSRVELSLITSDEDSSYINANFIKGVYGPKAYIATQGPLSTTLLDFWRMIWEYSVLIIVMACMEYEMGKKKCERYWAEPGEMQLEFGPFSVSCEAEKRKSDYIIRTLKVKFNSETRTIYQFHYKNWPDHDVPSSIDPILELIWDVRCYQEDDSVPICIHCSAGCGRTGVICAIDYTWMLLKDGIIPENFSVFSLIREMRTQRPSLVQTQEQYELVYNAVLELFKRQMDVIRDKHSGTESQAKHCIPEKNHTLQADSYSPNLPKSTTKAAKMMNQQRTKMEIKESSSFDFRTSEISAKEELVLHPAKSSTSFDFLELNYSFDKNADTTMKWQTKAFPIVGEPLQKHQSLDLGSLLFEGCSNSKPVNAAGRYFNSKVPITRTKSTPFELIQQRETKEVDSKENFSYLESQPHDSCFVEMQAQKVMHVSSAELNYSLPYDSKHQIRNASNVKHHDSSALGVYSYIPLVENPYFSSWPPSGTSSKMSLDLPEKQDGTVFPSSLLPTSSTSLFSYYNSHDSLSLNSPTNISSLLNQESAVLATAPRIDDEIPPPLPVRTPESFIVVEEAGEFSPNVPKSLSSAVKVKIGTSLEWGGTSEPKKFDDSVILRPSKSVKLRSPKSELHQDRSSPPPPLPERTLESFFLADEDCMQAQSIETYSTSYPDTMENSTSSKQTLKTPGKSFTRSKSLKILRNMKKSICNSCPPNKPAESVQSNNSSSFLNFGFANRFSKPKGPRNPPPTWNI
As to the kind of experiment: Inhibition of LYP (unknown origin) at 25 to 30 uM. As to conditions: dose 25-30 µM.

Experiment [11] is described as follows: Downregulation of REST protein expression in HEK293 cells incubated for 3 days with media replenishment for every 24 hrs by immunoblot analysis. The experiment is classed as functional, cell-based. The following applies: Homo sapiens.
Experiment [12] has as its system HEK293. As to the kind of experiment: Recovery of REST protein expression in HEK293 cells at 10 uM incubated for 2 days with media replenishment for every 24 hrs followed by compound washout and measured after 24 to 48 hrs by immunoblot analysis relative to control. As to conditions: time 2 day. In kind it is functional, Homo sapiens.
Experiment [13] addresses T2, Receptor-type tyrosine-protein phosphatase C (Homo sapiens) (UniProt P08575).
T2 sequence (whole entry): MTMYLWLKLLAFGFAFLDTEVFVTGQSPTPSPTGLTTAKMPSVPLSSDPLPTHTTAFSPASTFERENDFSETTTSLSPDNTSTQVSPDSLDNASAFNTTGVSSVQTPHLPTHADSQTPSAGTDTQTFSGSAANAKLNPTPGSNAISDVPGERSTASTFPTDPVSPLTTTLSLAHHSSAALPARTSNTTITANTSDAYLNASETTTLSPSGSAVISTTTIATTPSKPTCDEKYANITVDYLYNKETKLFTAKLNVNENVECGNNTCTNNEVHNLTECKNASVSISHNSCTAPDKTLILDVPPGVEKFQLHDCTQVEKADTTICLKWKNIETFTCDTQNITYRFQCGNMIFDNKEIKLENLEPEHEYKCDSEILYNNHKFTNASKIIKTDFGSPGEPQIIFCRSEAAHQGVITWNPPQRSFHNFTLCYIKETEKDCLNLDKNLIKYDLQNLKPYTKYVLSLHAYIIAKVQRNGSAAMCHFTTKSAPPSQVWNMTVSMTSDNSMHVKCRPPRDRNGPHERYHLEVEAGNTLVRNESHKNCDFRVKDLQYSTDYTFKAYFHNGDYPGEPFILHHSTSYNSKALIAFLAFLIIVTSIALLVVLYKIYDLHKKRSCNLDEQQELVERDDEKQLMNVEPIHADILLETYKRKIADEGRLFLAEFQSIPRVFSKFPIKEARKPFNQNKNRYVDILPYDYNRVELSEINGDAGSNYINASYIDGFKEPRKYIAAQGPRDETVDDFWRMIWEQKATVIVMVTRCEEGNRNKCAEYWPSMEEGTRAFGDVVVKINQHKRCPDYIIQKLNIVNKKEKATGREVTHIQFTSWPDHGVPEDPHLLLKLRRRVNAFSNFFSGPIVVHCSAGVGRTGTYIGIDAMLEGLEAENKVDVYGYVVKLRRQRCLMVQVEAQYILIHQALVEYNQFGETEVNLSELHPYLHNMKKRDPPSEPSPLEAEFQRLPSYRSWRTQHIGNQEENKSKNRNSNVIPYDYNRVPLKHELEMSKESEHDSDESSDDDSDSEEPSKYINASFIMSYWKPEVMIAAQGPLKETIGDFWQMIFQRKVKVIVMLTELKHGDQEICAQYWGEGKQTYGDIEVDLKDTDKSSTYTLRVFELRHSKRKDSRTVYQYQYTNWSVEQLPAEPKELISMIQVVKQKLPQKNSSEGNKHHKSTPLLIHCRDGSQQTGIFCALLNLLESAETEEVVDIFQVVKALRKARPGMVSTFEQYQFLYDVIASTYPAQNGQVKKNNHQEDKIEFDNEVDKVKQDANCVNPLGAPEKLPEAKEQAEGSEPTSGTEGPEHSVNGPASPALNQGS
As to the kind of experiment: Inhibition of CD45 (unknown origin) at 25 to 30 uM. The following applies: dose 25-30 µM.

The subject of experiment [14] is Schizosaccharomyces pombe. Put plainly: Time dependent inhibition of Schizosaccharomyces pombe wild type FCP1 (148 to 641 residues) using pNPP as substrate measured upto 18 hrs by absorbance based assay. As to conditions: time hrs <=18.

With `O=C(NCCCNS(=O)(=O)c1ccc(OC(F)(F)F)cc1)C1=Cc2ccccc2S1(=O)=O`, the inhibition entry in the experiment filed under Homo sapiens [1] was “Active”. In addition, the outcome in the experiment listed under Homo sapiens [2] was inactive. Also, the Activity in experiment [3] came out at 7%; in experiment [5], 80%; in experiment [8], 75%; in the experiment on HEK293 [12], 50%. In addition, the result in the experiment on HEK293 [4] was Active. Further, the “fold change (FC)” value in experiment [6] and in experiment [9] was 2 throughout. Moreover, the inhibition entry in experiment [7], in [10], in experiment [13] and in experiment [14] was “inactive” throughout. Moreover, the EC50 (as a rule, the concentration at which the effect is half-maximal) in [11] amounted to 1500 nM.
